Source: ChEMBL document CHEMBL3627685, “Identification of a molecular target of kurahyne, an apoptosis-inducing lipopeptide from marine cyanobacterial assemblages” (Bioorg Med Chem Lett, 2015)
Active and inactive are the calls of the source. The rule behind the calls is not given here. Starred links: 1 amine or outer side, 2 acyl side, 3 side chain; linkers in the order of their positions; H or OH if unused. Non-standard residues stand in square brackets, D forms with d. Residues, ends and D or L forms follow the SMILES beside them. *: point of attachment. X2 = O=C(O)c1cc(N*)ccc1-c1c2ccc(=O)cc-2oc2cc(O)ccc12; Pyrrolidine(2S-propanoyl) = CCC(=O)[C@@H]1CCCN1*; Biotin = O=C1N[C@H]2[C@H](CS[C@H]2CCCCC(=O)*)N1; X3 = C/C(=C\CCCc1cn(CCCN[*:1])nn1)C(=O)[*:2]; NMeI = CC[C@H](C)[C@H](NC)C(=O)O; PEG4 = NCCOCCOCCOCCOCCC(=O)O; NMeV = CN[C@H](C(=O)O)C(C)C; CO = O=C([*:1])[*:2]

How the values were obtained:
HeLa [1] = experiment: Induction of endoplasmic reticulum stress in human HeLa cells assessed as upregulation of Bip mRNA expression at 100 uM after 6 hrs by RT-PCR analysis; assay type: functional, cell-based
HeLa S3 [2] = experiment: Induction of Ca2+ release from endoplasmic reticulum into cytosol in human HeLaS3 cells at 1 uM by fura-2/AM-based spectrofluorometric analysis; assay type: functional, cell-based
HeLa [3] = experiment: Induction of endoplasmic reticulum stress in human HeLa cells assessed as upregulation of CHOP mRNA expression at 1 uM after 6 hrs by RT-PCR analysis; assay type: functional, cell-based
HeLa [4] = experiment: Induction of endoplasmic reticulum stress in human HeLa cells assessed as upregulation of Bip mRNA expression at 1 uM after 6 hrs by RT-PCR analysis; assay type: functional, cell-based
[5] = molecular target: Sarcoplasmic/endoplasmic reticulum calcium ATPase 1 (Oryctolagus cuniculus) (UniProt P04191); experiment: Inhibition of ATPase activity of SERCA1a in rabbit sarcoplasmic reticulum vesicles at 30 uM measured for 3 mins by lactate dehydrogenase/pyruvate kinase coupled assay
HeLa S3 [6] = experiment: Induction of Ca2+ release from endoplasmic reticulum into cytosol in human HeLaS3 cells at 10 uM by fura-2/AM-based spectrofluorometric analysis; assay type: functional, cell-based
[7] = Cytotoxicity against human RXF631L cells assessed as growth inhibition by sulforhodamine B assay; assay type: functional; conditions: RXF 631
SK-OV-3 = experiment: Cytotoxicity against human SKOV3 cells assessed as growth inhibition by sulforhodamine B assay; assay type: functional
[8] = Cytotoxicity against human HBC5 cells assessed as growth inhibition by sulforhodamine B assay; assay type: functional
HeLa [9] = experiment: Induction of endoplasmic reticulum stress in human HeLa cells assessed as upregulation of Bip mRNA expression at 10 uM after 6 hrs by RT-PCR analysis; assay type: functional, cell-based
DU-145 = experiment: Cytotoxicity against human DU145 cells assessed as growth inhibition by sulforhodamine B assay; assay type: functional
OVCAR-8 = experiment: Cytotoxicity against human OVCAR8 cells assessed as growth inhibition by sulforhodamine B assay; assay type: functional
[10] = Cytotoxicity against human BSY1 cells assessed as growth inhibition by sulforhodamine B assay; assay type: functional; conditions: BSY-1
LOX IMVI = experiment: Cytotoxicity against human LOXIMVI cells assessed as growth inhibition by sulforhodamine B assay; assay type: functional
SF-539 = experiment: Cytotoxicity against human SF539 cells assessed as growth inhibition by sulforhodamine B assay; assay type: functional
NCI-H226 = experiment: Cytotoxicity against human NCI-H226 cells assessed as growth inhibition by sulforhodamine B assay; assay type: functional
St-4 = experiment: Cytotoxicity against human St-4 cells assessed as growth inhibition by sulforhodamine B assay; assay type: functional
MDA-MB-231 = experiment: Cytotoxicity against human MDA-MB-231 cells assessed as growth inhibition by sulforhodamine B assay; assay type: functional
OVCAR-3 = experiment: Cytotoxicity against human OVCAR3 cells assessed as growth inhibition by sulforhodamine B assay; assay type: functional
MCF7 = experiment: Cytotoxicity against human MCF7 cells assessed as growth inhibition by sulforhodamine B assay; assay type: functional
U-251 = experiment: Cytotoxicity against human U251 cells assessed as growth inhibition by sulforhodamine B assay; assay type: functional
ACHN = experiment: Cytotoxicity against human ACHN cells assessed as growth inhibition by sulforhodamine B assay; assay type: functional
[11] = Cytotoxicity against mouse BMDM assessed as growth inhibition after 72 hrs by MTT assay
[12] = Cytotoxicity against human DMS273 cells assessed as growth inhibition by sulforhodamine B assay; assay type: functional; conditions: DMS-273
HT-29 = experiment: Cytotoxicity against human HT-29 cells assessed as growth inhibition by sulforhodamine B assay; assay type: functional
HCT-15 = experiment: Cytotoxicity against human HCT15 cells assessed as growth inhibition by sulforhodamine B assay; assay type: functional
HeLa [13] = experiment: Cytotoxicity against human HeLa cells assessed as growth inhibition after 72 hrs by MTT assay; assay type: functional, cell-based
[14] = Cytotoxicity against human MKN1 cells assessed as growth inhibition by sulforhodamine B assay; assay type: functional; conditions: MKN-1
NCI-H23 = experiment: Cytotoxicity against human NCI-H23 cells assessed as growth inhibition by sulforhodamine B assay; assay type: functional
[15] = Cytotoxicity against human MKN74 cells assessed as growth inhibition by sulforhodamine B assay; assay type: functional; conditions: MKN-74
[16] = molecular target: Sarcoplasmic/endoplasmic reticulum calcium ATPase 1 (Oryctolagus cuniculus) (UniProt P04191); experiment: Inhibition of ATPase activity of SERCA1a in rabbit sarcoplasmic reticulum vesicles measured for 3 mins by lactate dehydrogenase/pyruvate kinase coupled assay
KM12 = experiment: Cytotoxicity against human KM12 cells assessed as growth inhibition by sulforhodamine B assay; assay type: functional
NCI-H460 = experiment: Cytotoxicity against human NCI-H460 cells assessed as growth inhibition by sulforhodamine B assay; assay type: functional
HCC 2998 = experiment: Cytotoxicity against human HCC2998 cells assessed as growth inhibition by sulforhodamine B assay; assay type: functional
HeLa [17] = experiment: Induction of endoplasmic reticulum stress in human HeLa cells assessed as upregulation of CHOP mRNA expression at 10 uM after 6 hrs by RT-PCR analysis; assay type: functional, cell-based
[18] = Cytotoxicity against human SNB78 cells assessed as growth inhibition by sulforhodamine B assay; assay type: functional; conditions: SNB-78
HCT-116 = experiment: Cytotoxicity against human HCT116 cells assessed as growth inhibition by sulforhodamine B assay; assay type: functional
OVCAR-5 = experiment: Cytotoxicity against human OVCAR5 cells assessed as growth inhibition by sulforhodamine B assay; assay type: functional
PC-3 = experiment: Cytotoxicity against human PC3 cells assessed as growth inhibition by sulforhodamine B assay; assay type: functional
SF-295 = experiment: Cytotoxicity against human SF295 cells assessed as growth inhibition by sulforhodamine B assay; assay type: functional
[19] = Cytotoxicity against human HBC4 cells assessed as growth inhibition by sulforhodamine B assay; assay type: functional
SNB-75 = experiment: Cytotoxicity against human SNB75 cells assessed as growth inhibition by sulforhodamine B assay; assay type: functional
A549 = experiment: Cytotoxicity against human A549 cells assessed as growth inhibition by sulforhodamine B assay; assay type: functional
NCI-H522 = experiment: Cytotoxicity against human NCI-H522 cells assessed as growth inhibition by sulforhodamine B assay; assay type: functional
SF-268 = experiment: Cytotoxicity against human SF268 cells assessed as growth inhibition by sulforhodamine B assay; assay type: functional
OVCAR-4 = experiment: Cytotoxicity against human OVCAR4 cells assessed as growth inhibition by sulforhodamine B assay; assay type: functional
HeLa S3 [20] = experiment: Induction of Ca2+ release from endoplasmic reticulum into cytosol in human HeLaS3 cells by fura-2/AM-based spectrofluorometric analysis; assay type: functional, cell-based
[21] = Cytotoxicity against human MKN28 cells assessed as growth inhibition by sulforhodamine B assay; assay type: functional; conditions: MKN-28
[22] = Cytotoxicity against human DMS114 cells assessed as growth inhibition by sulforhodamine B assay; assay type: functional; conditions: DMS-114
[23] = Cytotoxicity against human MKN45 cells assessed as growth inhibition by sulforhodamine B assay; assay type: functional; conditions: MKN-45
HL-60 = experiment: Cytotoxicity against human HL60 cells assessed as growth inhibition after 72 hrs by MTT assay; assay type: functional, cell-based; conditions: HL-60, 72 h
[24] = Cytotoxicity against human MKN7 cells assessed as growth inhibition by sulforhodamine B assay; assay type: functional; conditions: MKN-7
HeLa [25] = experiment: Binding affinity to SERCA in human HeLa cells at […] after 12 hrs by immunoblot analysis; assay type: cell-based
[26] = Drug uptake in endoplasmic reticulum in human HeLa cells at 10 uM after 6 hrs by DsRed/DAPI dye-based fluorescence microscopic analysis; assay type: ADME, cell-based

Sequence of Sarcoplasmic/endoplasmic reticulum calcium ATPase 1 (Oryctolagus cuniculus) (P04191 whole entry): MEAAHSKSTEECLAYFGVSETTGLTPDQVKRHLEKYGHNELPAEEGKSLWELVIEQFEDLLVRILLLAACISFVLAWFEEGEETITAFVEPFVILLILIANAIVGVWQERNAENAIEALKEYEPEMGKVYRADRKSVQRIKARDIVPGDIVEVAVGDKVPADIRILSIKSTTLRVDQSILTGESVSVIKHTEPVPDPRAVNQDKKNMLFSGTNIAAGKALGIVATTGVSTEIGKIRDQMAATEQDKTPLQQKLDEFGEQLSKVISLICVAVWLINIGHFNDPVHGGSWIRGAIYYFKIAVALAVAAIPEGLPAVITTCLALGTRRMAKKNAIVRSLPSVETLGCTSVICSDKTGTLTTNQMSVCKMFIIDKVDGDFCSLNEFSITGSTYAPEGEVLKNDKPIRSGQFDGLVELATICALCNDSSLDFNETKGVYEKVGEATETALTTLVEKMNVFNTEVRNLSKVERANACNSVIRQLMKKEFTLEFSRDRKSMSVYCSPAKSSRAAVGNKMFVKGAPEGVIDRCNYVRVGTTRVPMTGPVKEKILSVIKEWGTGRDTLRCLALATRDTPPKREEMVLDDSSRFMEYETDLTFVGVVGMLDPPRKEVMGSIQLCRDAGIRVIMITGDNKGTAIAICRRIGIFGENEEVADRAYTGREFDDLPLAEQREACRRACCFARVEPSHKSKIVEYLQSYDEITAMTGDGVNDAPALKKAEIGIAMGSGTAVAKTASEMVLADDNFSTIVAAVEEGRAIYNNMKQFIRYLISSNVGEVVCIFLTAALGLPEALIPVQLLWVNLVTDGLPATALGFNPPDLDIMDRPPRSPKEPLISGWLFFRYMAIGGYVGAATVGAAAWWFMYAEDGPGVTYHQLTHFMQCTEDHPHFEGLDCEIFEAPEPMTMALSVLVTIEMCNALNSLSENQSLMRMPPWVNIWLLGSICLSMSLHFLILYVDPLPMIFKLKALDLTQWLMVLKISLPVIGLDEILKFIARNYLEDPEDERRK

With C#CCCC/C=C(\C)C(=O)N(C)[C@H](C(=O)N(C)[C@H](C(=O)N(C)[C@H](C(=O)N(C)[C@H](C(=O)N1CCC[C@H]1C(=O)N1CCC[C@H]1/C(CC)=N/OCC(=O)NCCCCCNC(=S)Nc1ccc(-c2c3ccc(=O)cc-3oc3cc(O)ccc23)c(C(=O)O)c1)C(C)C)C(C)C)[C@@H](C)CC)[C@@H](C)CC the Activity (HeLa [1]) was “inactive”.
With C/C=C(/C)C(=O)O[C@H]1C(C)=C2[C@H]([C@@H]1OC(=O)CCCCCCC)[C@@](C)(OC(C)=O)C[C@H](OC(=O)CCC)[C@@]1(O)[C@H]2OC(=O)[C@@]1(C)O the Activity (HeLa S3 [2]) was “Active”, the Activity (HeLa [3]) was “Active” and the Activity (HeLa [4]) was “Active”. The inhibition [5] was “Active”.
For CC(=O)C1=C(O)[C@@H]2[C@H]3c4c[nH]c5cccc(c45)C[C@H]3C(C)(C)N2C1=O, the Activity (HeLa S3 [6]) was “Active”.
Molecule C#CCCC/C=C(\C)C(=O)N(C)[C@H](C(=O)N(C)[C@H](C(=O)N(C)[C@H](C(=O)N(C)[C@H](C(=O)N1CCC[C@H]1C(=O)N1CCC[C@H]1C(=O)CC)C(C)C)C(C)C)[C@@H](C)CC)[C@@H](C)CC (HELM PEPTIDE1{[C#CCCC/C=C(\C)C(=O)[*:2]].[meI].[meI].[meV].[meV].P.[CCC(=O)[C@@H]1CCCN1[*:1]]}$$$$V2.0) has a GI50 [7] of 5.89 µM, a GI50 (SK-OV-3) of 11.2 µM and a GI50 [8] of 10.5 µM. For the same molecule, the Activity (HeLa [9]) was “Active”, the GI50 (DU-145) was 13.8 µM and the GI50 (OVCAR-8) was 14.5 µM. The GI50 [10] was 3.09 µM, the GI50 (LOX IMVI) was 3.89 µM and the GI50 (SF-539) was 10 µM. The GI50 (NCI-H226) was 7.24 µM, the GI50 (St-4) was 13.2 µM and the GI50 (MDA-MB-231) was 4.17 µM. It also gave a GI50 (OVCAR-3) of 6.61 µM, a GI50 (MCF7) of 3.98 µM and a GI50 (U-251) of 8.32 µM. The GI50 (ACHN) was 13.5 µM, the IC50 [11] was 1.96 µM and the GI50 [12] was 5.5 µM. It also gave a GI50 (HT-29) of 4.47 µM, a GI50 (HCT-15) of 11.5 µM and an IC50 (HeLa [13]) of 3.9 µM. For the same molecule, the GI50 [14] was 15.1 µM, the GI50 (NCI-H23) was 13.8 µM and the GI50 [15] was 3.72 µM. For the same molecule, the inhibition [16] was “Dose-dependent effect”, the GI50 (KM12) was 12.9 µM and the GI50 (NCI-H460) was 9.55 µM. For the same molecule, the GI50 (HCC 2998) was 14.8 µM, the Activity (HeLa [17]) was “Active” and the GI50 [18] was 16.6 µM. The GI50 (HCT-116) was 5.13 µM, the GI50 (OVCAR-5) was 11.2 µM and the GI50 (PC-3) was 4.47 µM. The GI50 (SF-295) was 10.7 µM, the GI50 [19] was 12.3 µM and the GI50 (SNB-75) was 14.5 µM. The GI50 (A549) was 7.24 µM, the GI50 (NCI-H522) was 2.4 µM and the GI50 (SF-268) was 5.62 µM. For the same molecule, the GI50 (OVCAR-4) was 11 µM, the Activity (HeLa S3 [20]) was “Dose-dependent effect” and the GI50 [21] was 12.9 µM. For the same molecule, the GI50 [22] was 4.9 µM, the GI50 [23] was 7.94 µM and the IC50 (HL-60) was 1.5 µM. It also gave a GI50 [24] of 7.41 µM.
In the case of CCC(=O)[C@@H]1CCCN1C(=O)[C@@H]1CCCN1C(=O)[C@H](C(C)C)N(C)C(=O)[C@H](C(C)C)N(C)C(=O)[C@H]([C@@H](C)CC)N(C)C(=O)[C@H]([C@@H](C)CC)N(C)C(=O)/C(C)=C/CCCc1cn(CCCNC(=O)CCOCCOCCOCCOCCNC(=O)CCCC[C@@H]2SC[C@@H]3NC(=O)N[C@@H]32)nn1 ({Biotin-PEG4}-[X3][NMeI][NMeI][NMeV][NMeV]P-{Pyrrolidine(2S-propanoyl)}), the Activity (HeLa [25]) is reported as “Active”.
With CCC(=O)[C@@H]1CCCN1C(=O)[C@@H]1CCCN1C(=O)[C@H](C(C)C)N(C)C(=O)[C@H](C(C)C)N(C)C(=O)[C@H]([C@@H](C)CC)N(C)C(=O)[C@H]([C@@H](C)CC)N(C)C(=O)/C(C)=C/CCCc1cn(CCCNC(=O)Nc2ccc(-c3c4ccc(=O)cc-4oc4cc(O)ccc34)c(C(=O)O)c2)nn1 ({X2-CO}-[X3][NMeI][NMeI][NMeV][NMeV]P-{Pyrrolidine(2S-propanoyl)}) the Activity (HeLa [1]) was “Active” and the Drug uptake [26] was “Active”.
